Laboratory results taken from publication PMC4849045, “Hepatoprotective Limonoids from Andiroba (Carapa guianensis)” (International Journal of Molecular Sciences, 2016).
Read-outs that look alike come from different tables or passages of the source.

Legend:
[1] = tested on: LPS-activated NO production in mouse peritoneal macrophages; assay: LPS-induced NO production in mouse peritoneal macrophages; type: cell-based; details: Peritoneal macrophage; for inhibition at 3 µM / inhibition at 10 µM / inhibition at 30 µM / inhibition at 100 µM: read-out: Inhibition (%) of LPS-activated NO production; for IC50: read-out: IC50, inhibition of LPS-activated NO production
Experimental: The effects of limonoids (1–17) on NO production were examined to provide an estimation of macrophage activation levels in LPS-treated mouse peritoneal macrophages.
Assay for NO production in TGC-induced mouse peritoneal macrophages was performed as described previously. N^G-Monomethyl-L-arginine (L-NMMA) and caffeic acid phenethyl ester (CAPE) were used as reference compounds [33, 36].

[2] = Cell viability of LPS-treated mouse peritoneal macrophages (MTT assay); type: cell-based
L929 cells = assay: TNF-α-induced cytotoxicity in L929 cells (MTT assay); type: cell-based; details: Mus musculus; for inhibition at 1 µM / inhibition at 3 µM / inhibition at 10 µM / inhibition at 30 µM: read-out: Inhibition (%) of TNF-α-induced cytotoxicity; for IC50: read-out: IC50, inhibition of TNF-α-induced decrease in cell viability
Experimental: The effects of the limonoids (1–17) on the sensitivity of hepatocytes to TNF-α were assessed by measuring TNF-α-induced decreases in the viability of L929 cells, a TNF-α-sensitive cell line, by using the MTT assay. In the absence of a test sample, the cells incubated with 1 ng/mL TNF-α for 44 h were compared with those not incubated with TNF-α.
Assay for the TNF-α-induced cytotoxicity in L929 cells was performed as described previously. Silybin was used as a reference compound [36].

[3] = tested on: primary cultured mouse hepatocytes; assay: D-GalN-induced cytotoxicity in primary cultured mouse hepatocytes (MTT assay); details: Hepatocyte, read-out: Inhibition (%) of D-GalN-induced cytotoxicity
Experimental: Assay for the D-GalN-induced cytotoxicity in primary cultured mouse hepatocytes was performed as described previously [33, 35, 36].

[4] = Mus musculus, 3 µM, mean ± S.E.M. (n = 4)
[5] = Mus musculus, 10 µM, mean ± S.E.M. (n = 4)
[6] = Mus musculus, 30 µM, mean ± S.E.M. (n = 4)
[7] = Mus musculus, 100 µM, mean ± S.E.M. (n = 4)
[8] = LPS-treated TGC-induced mouse peritoneal macrophages, 3 µM, mean ± S.E.M. (n = 4), read-out: cell viability (%) in MTT assay (values in parentheses) (converted)
[9] = LPS-treated TGC-induced mouse peritoneal macrophages, 10 µM, mean ± S.E.M. (n = 4), read-out: cell viability (%) in MTT assay (values in parentheses) (converted)
[10] = LPS-treated TGC-induced mouse peritoneal macrophages, 30 µM, mean ± S.E.M. (n = 4), read-out: cell viability (%) in MTT assay (values in parentheses) (converted)
[11] = LPS-treated TGC-induced mouse peritoneal macrophages, 100 µM, mean ± S.E.M. (n = 4), # = cytotoxic effects were observed, read-out: cell viability (%) in MTT assay (values in parentheses) (converted)
[12] = L929, 1 µM, 1 ng/mL TNF-α, 44 h, mean ± S.E.M. (n = 4)
[13] = L929, 3 µM, 1 ng/mL TNF-α, 44 h, mean ± S.E.M. (n = 4)
[14] = L929, 10 µM, 1 ng/mL TNF-α, 44 h, mean ± S.E.M. (n = 4)
[15] = L929, 30 µM, 1 ng/mL TNF-α, 44 h, mean ± S.E.M. (n = 4)
[16] = 3 µM, mean ± S.E.M. (n = 4), read-out: cell viability (%) in MTT assay (values in parentheses) (converted)
[17] = 10 µM, mean ± S.E.M. (n = 4), read-out: cell viability (%) in MTT assay (values in parentheses) (converted)
[18] = 30 µM, mean ± S.E.M. (n = 4), read-out: cell viability (%) in MTT assay (values in parentheses) (converted)
[19] = 100 µM, mean ± S.E.M. (n = 4), # = cytotoxic effects were observed, read-out: cell viability (%) in MTT assay (values in parentheses) (converted)
[20] = L929 cells, 1 ng/mL TNF-α, 44 h

Structure (SMILES) | inhibition at 3 µM [1, 4] [%] | inhibition at 10 µM [1, 5] [%] | inhibition at 30 µM [1, 6] [%] | inhibition at 100 µM [1, 7] [%] | IC50 ([1]; mouse peritoneal macrophages) [µM] | viability at 3 µM [2, 8] [%] | viability at 10 µM [2, 9] [%] | viability at 30 µM [2, 10] [%] | viability at 100 µM [2, 11] [%] | inhibition at 3 µM (L929 cells; [13]) [%] | inhibition at 10 µM (L929 cells; [14]) [%] | inhibition at 30 µM (L929 cells; [15]) [%] | inhibition at 3 µM [3] [%] | inhibition at 10 µM [3] [%] | inhibition at 30 µM [3] [%] | inhibition at 100 µM [3] [%] | IC50 ([1]; Mus musculus) [µM] | inhibition at 3 µM ([1]; Mus musculus) [%] | inhibition at 10 µM ([1]; Mus musculus) [%] | inhibition at 30 µM ([1]; Mus musculus) [%] | also measured
CC(=O)O[C@@H]1C2C(C)(C)C(=O)C=C[C@]2(C)C2CC[C@@]3(C)[C@H](c4ccoc4)OC(=O)[C@H]4O[C@]43[C@]2(C)[C@@H]1O (stereo partly shown) [compound 5, andirolide H] | 5.8 ± 6.1 | 63.9 ± 3 | 97.2 ± 0.9 | 99.7 ± 0.5 | 9.4 | 99.8 | 104 | 109 | 4.9 | -0.7 ± 1.2 | 7.6 ± 1.1 | 39.2 ± 1.7 | -6.2 ± 2.6 | -9 ± 0.5 | -9.2 ± 0.8 | -0.6 ± 0.8 |  |  |  |  | inhibition at 1 µM (L929 cells; [12]): -6.6 ± 3.6%
CC(=O)O[C@@H]1C[C@H]2C(C)(C)C(=O)C=C[C@]2(C)[C@H]2CC[C@@]3(C)[C@H](c4ccoc4)C(=O)[C@H]4O[C@]43[C@@]21C [compound 8, epoxyazadiradione] | 10.5 ± 0.9 | 56 ± 4 | 103 ± 4 | 112.3 ± 0.7 | 8.2 |  |  |  |  |  |  |  | -3.1 ± 8.9 | -2.2 ± 2.5 | -10.8 ± 0.6 | -11.9 ± 0.3 |  |  |  |  | viability at 3 µM [2, 16]: 99.6%; viability at 10 µM [2, 17]: 94.8%; viability at 30 µM [2, 18]: 81.9%; viability at 100 µM [2, 19]: 10%; IC50 (L929 cells; L929, 44 h): 10.2 µM; inhibition at 3 µM (L929 cells; L929, 44 h): 13.7 ± 3.9%; inhibition at 10 µM (L929 cells; L929, 44 h): 39.1 ± 6.5%; inhibition at 30 µM (L929 cells; L929, 44 h): 91.5 ± 11.4%
CC(=O)O[C@@H]1CC2C(C)(C)C(=O)C=C[C@]2(C)C2CC[C@]3(C)C(=CC(=O)[C@@]3(O)c3ccoc3)[C@@]21C (stereo partly drawn) [compound 9, 17β-hydroxyazadiradione] |  |  |  |  |  |  |  |  |  |  |  |  | 15.3 ± 2.3 | -4.1 ± 1.2 | -7.5 ± 1.4 | -7.5 ± 4 | 20.3 | -10.4 ± 6.8 | 9.4 ± 7.1 | 65.1 ± 4.5 | inhibition at 100 µM ([1]; Mus musculus): 97.4 ± 0.7%; viability at 3 µM [2]: 95.4%; viability at 10 µM [2]: 94.4 ± 14.1%; viability at 30 µM [2]: 94.8%; viability at 100 µM [2]: 84.8%; inhibition at 1 µM (L929 cells; L929, 44 h): 14.1 ± 3.4%; inhibition at 3 µM (L929 cells; L929, 44 h): 23.9 ± 3.9%; inhibition at 10 µM (L929 cells; L929, 44 h): 64 ± 3.3%; inhibition at 30 µM (L929 cells; L929, 44 h): 91.3 ± 8.2%; IC50 (L929 cells; [20]): 6.9 µM
CCC(C)C(=O)OC1C2(OC(C)=O)CC3(O)C4=CC(=O)OC(c5ccoc5)C4(C)CCC3C(C)(C2=O)C(CC(=O)OC)C1(C)C (stereo not shown) [compound 10, Carapanolide C] | 4.2 ± 8.8 | 20.8 ± 5 | 20.2 ± 4.9 | 13.2 ± 1.9 | > 100 | 96 | 98.9 | 91.8 | 80 | 14.2 ± 3.2 | 27.7 ± 4.3 | 54.5 ± 5.5 | 8 ± 4.3 | 3.4 ± 4.2 | 6.7 ± 2.1 | -7.7 ± 4.4 |  |  |  |  | inhibition at 1 µM (L929 cells; [12]): 4.9 ± 2.1%; IC50 (L929 cells; [20]): 27 µM
CCC(=O)OC1C2(O)C(OC(C)=O)C3(C)CC24OC2(C)OC15C1CC(=O)OC(c6ccoc6)C1(C)C(OC(C)=O)C(O)C5(O2)C4(C)C3CC(=O)OC (stereo not shown) [compound 13, Carapanolide M] |  |  |  |  |  |  |  |  |  | -1.5 ± 7.1 | 7 ± 4.4 | -5.1 ± 6.2 | -7 ± 0.5 | -7.3 ± 0.7 | 1 ± 0.4 | -9.9 ± 1 | 41.6 | -1.1 ± 2.7 | 3.2 ± 2.8 | 30.3 ± 3.1 | inhibition at 100 µM ([1]; Mus musculus): 85.1 ± 1.5%; viability at 3 µM [2, 16]: 99.2%; viability at 10 µM [2, 17]: 95.1%; viability at 30 µM [2, 18]: 94.2%; viability at 100 µM [2, 19]: 112%
CCC(=O)OC1C2(O)C(OC(C)=O)C3(C)CC24OC2(C)OC15C1CC(=O)OC(c6ccoc6)C1(C)C(OC(C)=O)CC5(O2)C4(C)C3C(OC(C)=O)C(=O)OC (stereo not shown) [compound 14, Carapanolide Q] |  |  |  |  |  | 99.8 | 96.3 | 95.5 | 116 | 8.6 ± 4.4 | 1.3 ± 4.2 | 9.2 ± 2.5 | 2.7 ± 1.9 | -3.5 ± 2.9 | -2.5 ± 2.1 | -6.2 ± 1.7 | 38 | 1.9 ± 0.7 | 14.4 ± 2.2 | 44.3 ± 1.1 | inhibition at 100 µM ([1]; Mus musculus): 75.3 ± 3.5%
COC(=O)C(OC(C)=O)C1C2(C)CC34OC5(C)OC6(C7CC(=O)OC(c8ccoc8)C7(C)C(OC(C)=O)C(O)C6(O5)C13C)C(OC(=O)C(C)C)C4(O)C2OC(C)=O (stereo not shown) [compound 15, Carapanolide O] | -2.5 ± 5.4 | 14.7 ± 8.2 | 6.9 ± 5 | 102 ± 3.2 | 46 |  |  |  |  |  |  |  | 7.5 ± 3.9 | -5.3 ± 5.6 | -5.2 ± 3.9 | -2.1 ± 1.7 |  |  |  |  | viability at 3 µM [2, 16]: 104%; viability at 10 µM [2, 17]: 108%; viability at 30 µM [2, 18]: 107%; viability at 100 µM [2, 19]: 109%; inhibition at 3 µM (L929 cells; L929, 44 h): 6.3 ± 4.3%; inhibition at 10 µM (L929 cells; L929, 44 h): 1 ± 6.4%; inhibition at 30 µM (L929 cells; L929, 44 h): 1.5 ± 4.1%
CCC(=O)OC1C2(OC(C)=O)C(OC(C)=O)C3(C)CC24OC2(C)OC15C(CC(=O)OC)C1(C)CC(c6occc6C1=O)C5(O2)C41COC(=O)CC31 (stereo not shown) [compound 16, guianolide A] |  |  |  |  |  | 96.9 | 102 | 98.7 | 106 | -6.2 ± 5.2 | -4.5 ± 1.9 | -7.3 ± 3 | 9.2 ± 4.2 | 11 ± 5.3 | 9.8 ± 2.8 | 23.5 ± 3.5 | 77.9 | 1.9 ± 3.2 | 3.2 ± 1.4 | 12.7 ± 1.6 | inhibition at 100 µM ([1]; Mus musculus): 71.3 ± 3.2%
COC(=O)CC1C(C)C(=O)C2(CC3(O)C4CC(=O)OC(c5ccoc5)C4(C)CCC3(O)O2)C(OC(=O)C(C)C)C1(C)C (stereo not shown) [compound 17, carapanolide A] | -0.6 ± 2.1 | 1.2 ± 2 | 41.1 ± 1 | 4.9 ± 1.8 | > 100 | 103 | 104 | 110 | 91.3 | 8.8 ± 6.5 | 21.5 ± 5.5 | 58.2 ± 4.7 | -6.8 ± 1.2 | -8.3 ± 0.7 | -4.5 ± 0.6 | -7 ± 0.6 |  |  |  |  | IC50 (L929 cells; [20]): 25.3 µM
